We go through 55 compounds from patent US6413959B1, “Method of treating depression with arylglycinamide derivatives” (Boehringer Ingelheim KG, priority 1995, dated 2002).

Structures can show the parent of a compound that is named as a salt.

In the first series the target is T1, NK1-receptor (substance P-receptor) (Homo sapiens, UniProt P25103).
T1 construct: expressed in transfected cells; host or cells: IM-9 human lymphoblastoma cells
T1 sequence (P25103 whole entry): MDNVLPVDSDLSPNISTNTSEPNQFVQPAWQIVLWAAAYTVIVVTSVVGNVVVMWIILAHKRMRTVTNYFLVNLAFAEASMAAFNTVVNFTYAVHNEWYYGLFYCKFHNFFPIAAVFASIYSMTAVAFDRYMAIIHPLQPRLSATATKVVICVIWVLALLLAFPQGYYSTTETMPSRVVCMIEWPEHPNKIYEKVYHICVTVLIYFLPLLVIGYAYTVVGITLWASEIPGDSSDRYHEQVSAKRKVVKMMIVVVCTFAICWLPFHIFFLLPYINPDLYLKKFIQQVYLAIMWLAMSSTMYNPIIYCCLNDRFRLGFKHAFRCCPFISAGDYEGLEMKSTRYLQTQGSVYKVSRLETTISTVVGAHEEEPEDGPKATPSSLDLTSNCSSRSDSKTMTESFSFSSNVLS
In words: NK1-receptor affinity, displacement of 125I-labelled substance P on IM-9 cells. It counts as binding. The note with it: human lymphoblastoma cells (IM-9) with cloned NK1-receptors. On the technique in general: Loss of bound radioactivity is the signal in a displacement assay; it reports binding, not function.
`CN(CCc1cc(C(F)(F)F)cc(C(F)(F)F)c1)C(=O)C(c1ccccc1)N1CCC(N2CCOCC2)CC1` (stereo not drawn) [Example 46] returned a Ki of 1.4 nM.

Regarding `CC(C)N(CCc1cc(C(F)(F)F)cc(C(F)(F)F)c1)C(=O)C(c1ccccc1)N1CCC(N2CCCCC2)CC1` (stereo not drawn) [Example 72], the Ki was 6.8 nM.

Compound `CN(CCc1cc(C(F)(F)F)cc(C(F)(F)F)c1)C(=O)C(c1ccccc1)N1CCN(CCc2ccccc2)CC1` (stereo not drawn) [Example 65] yielded an inhibition constant (Ki) of 9.2 nM. `CN(CCc1cc(C(F)(F)F)cc(C(F)(F)F)c1)C(=O)C(c1ccccc1)N1CCC(C#N)(c2ccccc2)CC1.Cl` (stereo not drawn) [Example 75] came in with an inhibitory constant (Ki) of 180 nM.

Consider `CN(CCc1cc(C(F)(F)F)cc(C(F)(F)F)c1)C(=O)C(c1ccc(Cl)c(Cl)c1)N1CCN(C2CCCCC2)CC1` (stereo not drawn) [Example 58], for which the Ki was found to be 6.4 nM. Same read-out and setting: then `O=C(NCCc1cc(C(F)(F)F)cc(C(F)(F)F)c1)C(c1ccccc1)N1CCN(C2CCCCC2)CC1` (stereo not drawn) [Example 3], with 1.4 nM; and `CN(CCc1cc(C(F)(F)F)cc(C(F)(F)F)c1)C(=O)C(c1ccccc1)N1CCC(N2CCCCC2)CC1` (stereo not drawn) [Example 33], with 1.3 nM; and `CN(CCc1cc(C(F)(F)F)cc(C(F)(F)F)c1)C(=O)C(c1ccccc1)N1CCN(C2CCCCCC2)CC1` (stereo not drawn) [Example 53], with 2.3 nM. `CN(Cc1cc(C(F)(F)F)cc(C(F)(F)F)c1)C(=O)C(c1ccccc1)N1CCN(C2CCCCC2)CC1` (stereo not drawn) [Example 4] registered an inhibition constant (Ki) of 1 nM. On the same count and under the same terms, the figure for `CN(CCc1cc(C(F)(F)F)cc(C(F)(F)F)c1)C(=O)C(c1ccc2c(c1)OCO2)N1CCN(C2CCCCC2)CC1` (stereo not drawn) [Example 71] is 2.1 nM; for `COc1ccc(C(C(=O)N(C)CCc2cc(C(F)(F)F)cc(C(F)(F)F)c2)N2CCN(C3CCCCC3)CC2)cc1OC` (stereo not drawn) [Example 70] it is 2.8 nM. `CCN(CCc1cc(C(F)(F)F)cc(C(F)(F)F)c1)C(=O)C(c1ccccc1)N1CCC(N2CCCCC2)CC1` (stereo not drawn) [Example 73] registered an inhibition constant (Ki) of 1.7 nM. The compound `CN(CCc1ccc(C(F)(F)F)cc1C(F)(F)F)C(=O)C(c1ccccc1)N1CCC(N2CCCCC2)CC1` (stereo not drawn) [Example 74] gave a Ki of 11.8 nM. Same read-out and setting: the figure for `CN(CCc1cc(C(F)(F)F)cc(C(F)(F)F)c1)C(=O)C(c1ccccc1)N1CCC(N2CCCC2)CC1` (stereo not drawn) [Example 45] is 1.6 nM. Same read-out and setting: the figure for `O=C(C(c1ccccc1)N1CCC(N2CCCCC2)CC1)N(CCc1cc(C(F)(F)F)cc(C(F)(F)F)c1)Cc1ccccc1` (stereo not drawn) [Example 76] is 7 nM.

Test system in another series: not given
Experiment: not given
Conditions: not given
Turning to `O=C(NCc1cc(C(F)(F)F)cc(C(F)(F)F)c1)C(c1ccccc1)N1CCC(Nc2ccccn2)CC1` (stereo not drawn) [Example 14], the melting point lay in the range of 164 to 166 °C.

Compound `O=C(Nc1ccccc1)NC1CCN(C(C(=O)NCc2cc(C(F)(F)F)cc(C(F)(F)F)c2)c2ccccc2)CC1` (stereo not drawn) [Example 10] showed a melting point of 218 to 223 °C. Same read-out and setting: the figure for `NC(=O)C1(N2CCCCC2)CCN(C(C(=O)NCc2cc(C(F)(F)F)cc(C(F)(F)F)c2)c2ccccc2)CC1` (stereo not drawn) [Example 11] is > 220 °C (dec.); for `O=C(NCc1cc(C(F)(F)F)cc(C(F)(F)F)c1)C(c1ccc(F)cc1)N1CCN(C2CCCCC2)CC1` (stereo not drawn) [Example 31] it is above 240 °C; for `O=C(O)CN(Cc1cc(C(F)(F)F)cc(C(F)(F)F)c1)C(=O)C(c1ccccc1)N1CCN(C2CCCCC2)CC1` (stereo not drawn) [Example 22] it is 70 to 73 °C. On the same count and under the same terms, then `CN(CCc1cc(C(F)(F)F)cc(C(F)(F)F)c1)C(=O)C(c1ccccc1)N1CCN(CCc2ccccc2)CC1` (stereo not drawn) [Example 65], with 148 to 156 °C. As for `O=C(NCCc1cc(C(F)(F)F)cc(C(F)(F)F)c1)C(c1ccccc1Br)N1CCN(C2CCCCC2)CC1` (stereo not drawn) [Example 62], the melting point is 210 to 218 °C. On the same count and under the same terms, the figure for `CN(CCc1cc(C(F)(F)F)cc(C(F)(F)F)c1)C(=O)C(c1ccccc1)N1CCC2(CC1)C(=O)NCN2c1ccccc1` (stereo not drawn) is 265 to 268 °C (dec.).

With `O=C(NCc1cc(C(F)(F)F)cc(C(F)(F)F)c1)C(c1ccccc1)N1CCC(n2c(=O)[nH]c3cccnc32)CC1` (stereo not drawn) [Example 15], the melting point is 208 to 210 °C. On the same count and under the same terms, the figure for `O=C(NCc1cc(C(F)(F)F)cc(C(F)(F)F)c1)C(c1ccccc1Cl)N1CCN(C2CCCCC2)CC1` (stereo not drawn) [Example 29] is 120 to 122 °C; for `O=C(NCCc1cc(C(F)(F)F)cc(C(F)(F)F)c1)C(c1cccc2ccccc12)N1CCN(C2CCCCC2)CC1` (stereo not drawn) [Example 38] it is 155 to 172 °C; for `CN(CCc1cc(C(F)(F)F)cc(C(F)(F)F)c1)C(=O)C(c1ccccc1)N1CCC(C#N)(c2ccccc2)CC1.Cl` (stereo not drawn) [Example 75] it is 91 to 98 °C. On the same count and under the same terms, then `CN(CCc1cc(C(F)(F)F)cc(C(F)(F)F)c1)C(=O)C(c1ccc(Cl)c(Cl)c1)N1CCN(C2CCCCC2)CC1` (stereo not drawn) [Example 58], with 212 to 216 °C (dec.). Same read-out and setting: then `O=C(NCCc1cc(C(F)(F)F)cc(C(F)(F)F)c1)C(c1ccccc1)N1CCN(C2CCCCC2)CC1` (stereo not drawn) [Example 3], with 235 to 238 °C. Regarding `O=C(NCc1cc(C(F)(F)F)cc(C(F)(F)F)c1)C(c1ccccc1)N1CCC(N2CCCCC2)CC1` (stereo not drawn) [Example 7], the melting point is > 240 °C (dec.). With `O=C(NCc1cc(C(F)(F)F)cc(C(F)(F)F)c1)C(c1ccccc1)N1CCC(N(C(=O)c2ccccc2)c2ccccc2)CC1` (stereo not drawn), the melting point lay in the range of 102 to 105 °C. Same read-out and setting: then `CN(CCc1cc(C(F)(F)F)cc(C(F)(F)F)c1)C(=O)C(c1ccccc1)N1CCN(C2CCCCCC2)CC1` (stereo not drawn) [Example 53], with 110 to 120 °C; and `CN(Cc1cc(C(F)(F)F)cc(C(F)(F)F)c1)C(=O)C(c1ccccc1)N1CCN(C2CCCCC2)CC1` (stereo not drawn) [Example 4], with > 240 °C (dec.). Still for that read-out and setting: then `CN(CCc1cc(C(F)(F)F)cc(C(F)(F)F)c1)C(=O)C(c1ccccc1)N1CCC(C(N)=O)(c2ccccc2)CC1.Cl` (stereo not drawn), with 127 to 137 °C; and `O=C(NCCCc1ccc(C(F)(F)F)cc1C(F)(F)F)C(c1ccccc1)N1CCN(C2CCCCC2)CC1` (stereo not drawn) [Example 17], with 118 to 123 °C.

Compound `CN(CCc1cc(C(F)(F)F)cc(C(F)(F)F)c1)C(=O)C(c1ccc2c(c1)OCO2)N1CCN(C2CCCCC2)CC1` (stereo not drawn) [Example 71] registered a melting point of 87 to 97 °C. Same read-out and setting: the figure for `COc1ccccc1C(C(=O)NCc1cc(C(F)(F)F)cc(C(F)(F)F)c1)N1CCN(C2CCCCC2)CC1` (stereo not drawn) [Example 42] is 142 to 150 °C; for `COc1ccc(C(C(=O)N(C)CCc2cc(C(F)(F)F)cc(C(F)(F)F)c2)N2CCN(C3CCCCC3)CC2)cc1OC` (stereo not drawn) [Example 70] it is 123 to 133 °C (dec.); for `O=C(NCc1cc(C(F)(F)F)cc(C(F)(F)F)c1)C(c1cccc(Br)c1)N1CCN(C2CCCCC2)CC1` (stereo not drawn) [Example 27] it is 124 to 127 °C. The same measure, in the same setting: then `CN(CCc1cc(C(F)(F)F)cc(C(F)(F)F)c1)C(=O)C(c1ccccc1)N1CCC(c2ccccc2)CC1.Cl` (stereo not drawn), with 106 to 110 °C; and `O=C(Nc1ccccc1)C1CCN(C(C(=O)NCc2cc(C(F)(F)F)cc(C(F)(F)F)c2)c2ccccc2)CC1` (stereo not drawn) [Example 19], with > 240 °C (dec.); and `CC(=O)N1CCN(C2CCN(C(C(=O)NCc3cc(C(F)(F)F)cc(C(F)(F)F)c3)c3ccccc3)CC2)C1=O` (stereo not drawn) [Example 13], with 87 to 95 °C.

`COc1ccccc1C(C(=O)NCCc1cc(C(F)(F)F)cc(C(F)(F)F)c1)N1CCN(C2CCCCC2)CC1` (stereo not drawn) [Example 64] came in with a melting point of 85 to 92 °C. `CN(CCc1cc(C(F)(F)F)cc(C(F)(F)F)c1)C(=O)C(c1ccccc1)N1CCC(N2CCCCC2)CC1` (stereo not drawn) (as salt: hydrochloride) [Example 33] gave a melting point above 240 °C.

Compound `O=C(NCc1cc(C(F)(F)F)cc(C(F)(F)F)c1)C(c1ccc(Br)cc1)N1CCN(C2CCCCC2)CC1` (stereo not drawn) [Example 21] displayed a melting point of 228 to 232 °C.

On to `Cl.O=C(NCc1cc(C(F)(F)F)cc(C(F)(F)F)c1)C(c1ccccc1)N1CCC(N(C(=O)c2ccccc2)c2ccccn2)CC1` (stereo not drawn), for which the melting point is 145 to 151 °C.

The compound `O=C(NC1CCN(C(C(=O)NCc2cc(C(F)(F)F)cc(C(F)(F)F)c2)c2ccccc2)CC1)c1ccccc1` (stereo not drawn) [Example 20] came in with a melting point of 180 to 185 °C. `O=C(NCc1cc(C(F)(F)F)cc(C(F)(F)F)c1)C(c1ccccc1)N1CCN(C2CCCCC2)CC1` (racemic) [Example 1, (R,S)-1-cyclohexyl-piperazinyl-4-[2-phenylacetic acid-N-(3,5-bis-trifluoromethylbenzyl)amide]]: the melting point lay in the range of 124 to 129 °C.

Turning to `O=C(NCc1cc(C(F)(F)F)cc(C(F)(F)F)c1)C(c1ccccc1)N1CCC2(CC1)C(=O)NCN2c1ccccc1` (stereo not drawn), the melting point is 205 to 210 °C.

Turning to `Cl.O=C(NCc1cc(C(F)(F)F)cc(C(F)(F)F)c1)C(c1ccccc1)N1CCC(N2C(=O)CCC2=O)CC1` (stereo not drawn), the melting point is 110 to 115 °C. Still for that read-out and setting: the figure for `Cc1nc2ccccc2n1C1CCN(C(C(=O)NCc2cc(C(F)(F)F)cc(C(F)(F)F)c2)c2ccccc2)CC1` (stereo not drawn) is 107 to 111 °C.

`O=C(NCCc1cc(C(F)(F)F)cc(C(F)(F)F)c1)C(c1ccccc1)N1CCC(N2CCCCC2)CC1` (stereo not drawn) [Example 25]: the melting point lay within 192 to 199 °C. Still for that read-out and setting: the figure for `O=C(NCc1cc(C(F)(F)F)cc(C(F)(F)F)c1)C(c1ccccc1Br)N1CCN(C2CCCCC2)CC1` (stereo not drawn) [Example 28] is 118 to 120 °C; for `O=C(NCc1cc(C(F)(F)F)cc(C(F)(F)F)c1)C(c1ccc(Cl)cc1)N1CCN(C2CCCCC2)CC1` (stereo not drawn) [Example 26] it is 112 to 118 °C; for `O=C(NCc1cc(C(F)(F)F)cc(C(F)(F)F)c1)C(c1ccccc1)N1CCN(CCC2CC2)CC1` (stereo not drawn) [Example 18] it is 134 to 136 °C. Take `CN(CCc1cc(C(F)(F)F)cc(C(F)(F)F)c1)C(=O)C(c1ccccc1)N1CCC(n2c(=O)[nH]c3ccccc32)CC1` (stereo not drawn): the melting point was in the range of 177 to 187 °C. Same read-out and setting: the figure for `O=C(NCc1cc(C(F)(F)F)cc(C(F)(F)F)c1)C(c1ccc(Cl)c(Cl)c1)N1CCN(C2CCCCC2)CC1` (stereo not drawn) [Example 23] is 248 to 254 °C; for `O=C(NCCc1cc(C(F)(F)F)cc(C(F)(F)F)c1)C(c1ccccc1Cl)N1CCN(C2CCCCC2)CC1` (stereo not drawn) [Example 63] it is 215 to 224 °C. Same read-out and setting: then `O=C(NCc1cc(C(F)(F)F)cc(C(F)(F)F)c1)C(c1ccccc1)N1CCN(CCC2CCCCC2)CC1` (stereo not drawn) [Example 6], with 97 to 99 °C; and `O=C(NCc1cc(C(F)(F)F)cc(C(F)(F)F)c1)C(c1cccc(Cl)c1)N1CCN(C2CCCCC2)CC1` (stereo not drawn) [Example 30], with above 240 °C.

On to `CCC(=O)NC1CCN(C(C(=O)NCc2cc(C(F)(F)F)cc(C(F)(F)F)c2)c2ccccc2)CC1` (racemic) [Example 2, (R,S)-4-propionylamino-1-[2-phenylacetic acid-N(3,5-bis-trifluoromethyl-benzyl)-amide]-piperidine], for which the melting point was 189 to 191 °C. Same read-out and setting: the figure for `CN(CCc1cc(C(F)(F)F)cc(C(F)(F)F)c1)C(=O)C(c1ccccc1)N1CCN(c2ccccc2)CC1` (stereo not drawn) [Example 60] is 113 to 123 °C; for `O=C(NCc1cc(C(F)(F)F)cc(C(F)(F)F)c1)C(c1cc(C(F)(F)F)cc(C(F)(F)F)c1)N1CCN(C2CCCCC2)CC1` (stereo not drawn) [Example 24] it is 210 °C.

As usually defined, the Ki is the equilibrium dissociation constant of an inhibitor or competing ligand from its target. A high value points to weaker binding. For orientation: melting point means the temperature, or range, at which the solid turns liquid.
